The values below come from US20260152533A1, “COMBINATION INHIBITORS FOR TREATING FIBROSIS” (Memorial Sloan-Kettering Cancer Center, priority 2021, published 2026).

Test [1] relates to pyruvate carboxylase (PC). In words: Stable isotope tracing in NIH-3T3 cells (surrogate for PC activity). It counts as cell-based, mouse. The procedure: Cells were plated in six-well cell culture plates at a concentration aimed to reach 0.5-1×10^6 cells at the time of harvest. For quantification of relative metabolite abundance, cells were cultured with glutamine-free DMEM containing different concentrations of L-glutamine and supplemented with 10% dialyzed FBS and in some experiments were treated with TGFβ for 48 hours. For the [U-^13C]and [3,4-^13C]glucose tracing experiments, cells were cultured as above, and in the last 8 hours media was replaced with DMEM without D-glucose and L-glutamine supplemented with 2 mM or 0.2 mM L-glutamine and 10 mM [U-^13C]or [3,4-^13C]D-glucose (Cambridge Isotope Laboratories) and 10% dialyzed FBS. For the [U-^13C]and [1-^13C]lactate tracing experiments, cells were cultured in 2 or 0.2 mM L-glutamine, 10 or 1 mM D-glucose in the presence or absence of 10 mM sodium lactate, and in the last 8 hours media was replaced with DMEM without D-glucose and L-glutamine supplemented with 2 mM or 0.2 mM L-glutamine, 10 or 1 mM D-glucose, 10 mM [U-^13C]or [1-^13C]sodium lactate (Cambridge Isotope Laboratories) and 10% dialyzed FBS. For relative quantification of metabolites by gas chromatography-mass spectroscopy (GC-MS), cells were washed briefly with PBS, which was then fully aspirated and metabolism was quenched by immediately adding 1 mL of 80:20 methanol:water stored at −80° C. containing 20 μM deuterated 2-hydroxyglutarate (d5-2HG) as an internal standard. For stable isotope tracing experiments, metabolism was quenched without the PBS washing step by adding 1 mL of 80:20 methanol:water as above. After overnight incubation at −80° C., the resulting extracts were scraped on dry ice, transferred into a 1.5 mL centrifuge tube, and centrifuged at 20,000 g for 20 minutes at 4° C. The supernatants were collected in clean tubes and dried in a vacuum evaporator (Genevac EZ-2 Elite) for 2 hours.
For [U-^13C]glucose tracing into proteinogenic amino acids, cells were cultured in 10% Gln in the presence or absence of TGFβ for 48 hours. In the last 24 hours, the media including all treatments was replaced with DMEM without L-glutamine and D-glucose and supplemented with 0.2 mM L-glutamine and 10 mM [U-^13C]D-glucose (Cambridge Isotope Laboratories) and 10% dialyzed FBS. For [U-^13C]lactate tracing into ECM, confluent cells were cultured in 10% Gln in the presence of 10 mM [U-^13C]sodium lactate for 6 days. The media was replaced every other day. ECM was decellularized as described above. Cells and ECM were washed with PBS, and proteins were precipitated with methanol:chloroform:water (1:1:1). The interphase was washed with methanol, and the dried pellet was subjected to acid hydrolysis with 6 N hydrochloric acid (HCl) and incubation at 95° C. for 16 hours. Samples were cooled to room temperature and centrifuged at 20,000 g for 10 minutes. The cleared supernatant was dried in a vacuum evaporator (Genevac EZ-2 Elite) for 2 hours, and abundance of aspartate, glutamate/glutamine or hydroxyproline isotopologues was measured by GC-MS as described below.
GC-MS measurements were performed as described before^11. Ions used for quantification of metabolite levels were as follows: d5-2HG m/z 354; citrate m/z 465; alpha-ketoglutarate m/z 304; succinate m/z 247; fumarate m/z 245; malate m/z 335; aspartate m/z 232; hydroxyproline m/z 332; proline m/z 216; glutamate m/z 246; glutamine m/z 245; lactate m/z 219; pyruvate m/z 174. All peaks were manually inspected and verified relative to known spectra for each metabolite. Peak identification and integration were done with MassHunter software vB.09 (Agilent Technologies). For relative quantification of cell samples, integrated peak areas were normalized to the internal standard d5-2HG and to the packed cell volume of each sample. Absolute quantification of hydroxyproline in tumor acid hydrolysates was performed against a standard curve of commercial trans-4-hydroxy-L-proline (Sigma). […]

The test system of test [2] is NIH-3T3 cells. The note with it: proliferative fibroblasts, glutaminase inhibition; cited from earlier work.
Test [3] has as its system NIH-3T3 cells. Nature of the test: Western blot of NIH-3T3 cells (collagen I, GCN2, ATF4, PC). It counts as cell-based, mouse. An excerpt:
PSCs were isolated from C57BL/6 mice by differential centrifugation as previously described^49 and their mesenchymal origin was validated by analyzing the expression of various mesenchymal and epithelial markers. MFBs were isolated from FVB/N mice by differential centrifugation as previously described^50. DB7 mouse breast cancer cells were obtained from Alexander Borowsky (University of California Davis Comprehensive Cancer Center, Sacramento, CA, USA) through an MTA to Ohio State University (OSU). KPC (Kras^LSL-G12D; Trp53^LSL-R172H; Pdx1-Cre) mouse PDAC cells were a gift from Scott Lowe (Memorial Sloan Kettering Cancer Center. (MSKCC)). All cells were cultured at 37° C. in 5% carbon dioxide (CO2) and 20% oxygen (O2) and were maintained in Dulbecco's Modified Eagles medium (DMEM) (25 mM D-glucose, 2 mM L-glutamine) supplemented with 10% fetal bovine serum (FBS) (Gemini), 100 units/ml penicillin and 100 μg/ml streptomycin. Primary PSC and MFB cells were kept in culture for no more than ten passages. Experiments with iCAFs and myCAFs were performed as previously described^29. In brief, qPSCs were generated by culturing PSCs in a dome of GFR Matrigel (Corning) in DMEM; iCAFs were generated by culturing PSCs in a dome of GFR Matrigel in DMEM conditioned by KPC cells for 48 h; myCAFs were generated by monolayer culture of PSCs. Differentiation was validated by analyzing the expression of iCAF/myCAF markers^29. For experiments with different glutamine concentrations, cells were seeded in regular DMEM and the medium was changed 5-6 hours later or the following day to glucose and glutamine-free DMEM supplemented with 10% dialyzed FBS (Gemini) and 20 mM D-glucose, 2 mM L-glutamine (100%), 0.4 mM L-glutamine (20%) or 0.2 mM L-glutamine (10%). All media were prepared by the Media Preparation Facility at MSKCC. Cells were verified as mycoplasma-free by the MycoAlert Mycoplasma Detection Kit (Lonza).
Lysates were generated by incubating cells or ground tumors in RIPA buffer (Millipore); […] of cleared lysate were analyzed by SDS-polyacrylamide gel electrophoresis (SDS-PAGE) as previously described^11. […] The following secondary antibodies were used: anti-rabbit horseradish peroxidase (HRP) (1:5,000; GE, NA934V), anti-mouse HRP (1:5,000; GE, NA931). Quantification of band intensities of collagen I relative to […] or vinculin in tumor allograft experiments was performed with Image Lab software v6.0 (Bio-Rad).

The mark [4] stands for this setting: 10% Gln, TGFβ, 48 hours (FIG. 1G).

Regarding `O=C(Cc1cccc(OC(F)(F)F)c1)Nc1ccc(CCCCc2nnc(NC(=O)Cc3ccccn3)s2)nn1` [CB839], the “m+1 labelling of aspartate and pyruvate carboxylation activity from [3,4-13C]Glc” value in test [1] (100% Gln, CB839, 48 hours (FIG. 4G)) is on record as “increased”. In test [1] (CB839, 48 hours (FIG. 4F), indicative of anaplerosis via PC), the “m+3 labelling of TCA cycle intermediates and related NEAAs from [U-13C]Glc” value is listed as “increased”. Besides, in the test on NIH-3T3 cells [2], the Gln-tRNA charging entry was “restored”. Moreover, the “collagen I protein levels” value in the test on NIH-3T3 cells [3] (setting [4]) is “only marginally increased”. Also, the “rescue of GCN2 activation induced by TGFβ treatment” value in the test on NIH-3T3 cells [3] (setting [4]) is reported as “did not rescue”. For the same compound, the “collagen I levels” value is given as “reduced collagen I levels” with NIH-3T3 cells [3] (PC-deleted cells (PC sgRNA), CB839, 48 hours (FIG. 4H)) and “did not affect” with NIH-3T3 cells [3] (full medium (100% Gln), CB839 1 μM alone, 48 hours (FIG. 4E)).
